Reference: PubChem BioAssay AID1919002 (Molecular Pharmacology Branch, DTP, NCI, 2023)

Test system: 743489-274-T-PDC complex spheroid growth
Test: Anticancer human tumor 743489-274-T-PDC patient-derived renal cell carcinoma cell line growth inhibition [AhR]
Details: for IC50: curve of first compound; for viability, T/C: stronger effect = lower value
From the text: Multicellular complex tumor spheroid response to aryl hydrocarbon receptor antagonists in combination with a variety of drugs and investigational agents in selected tumor cell lines
The current study was undertaken to assess response to aryl hydrocarbon receptor antagonists in combination with standard-of-care drugs and investigational agents in solid tumor complex spheroid models. Complex spheroids include a stromal component modeled by human endothelial cells (HUVEC) and fibroblasts modeled by human mesenchymal stem cells (MSCs). The concentration ranges selected for each drug and investigational agent were based upon clinically achievable concentrations if the clinical Cmax of the agent was known.
Compounds. The drugs and investigational agents: BAY 2416964 (NSC825713), GNF351 (NSC835774), CH-223191 (NSC835775), CPI-455 (NSC825282), aza-TdCyd (NSC777586), decitabine (NSC127716), belinostat (NSC758774), entinostat (NSC756642), pevonedistat (NSC761192), tazemetostat (NSC777109), talazoparib (NSC765396), olaparib (NSC753686), selinexor (NSC780203), nedisertib (M3814, NSC802822), bortezomib (NSC756655), venetoclax (NSC766270), doxorubicin (NSC123127), elimusertib (BAY189344, NSC800525), ceralasertib (AZD6738, NSC777638), TAK-243 (NSC785004), alisertib (NSC759677), etoposide (NSC141540), topotecan (NSC609699), eribulin (NSC707389), gemcitabine (NSC613327), carboplatin (NSC241240), cisplatin (NSC119875), and SN-38 (NSC673596) were obtained from the National Cancer Institute (NCI) Developmental Therapeutics Program Chemical Repository (32). The FDA-approved anticancer drug set is available from the Developmental Therapeutics Program at https://dtp.cancer.gov/organization/dscb/obtaining/available plates.htm. […] The stock solutions were prepared in dimethyl sulfoxide (DMSO, Sigma-Aldrich, St. Louis, MO, cat. D2650), except for the platinum compounds which were prepared in saline (Quality Biological, Gaithersburg, MD, cat. 114-055-101), at 800-fold the tested concentration and stored at -70 degrees C prior to their use. All drugs and investigational agents were tested over a range starting from a high concentration at or near the clinical Cmax and decreasing in half-log increments. If the clinical Cmax for an agent had not been determined, the highest concentration tested was 10 microM (Table 1).
Cell Culture. All cells were maintained in an incubator at 37 degrees C and 5% CO2 with 95% humidity. The PDC lines were cultured according to standard operating procedures established by the NCI PDMR (https://pdmr.cancer.gov). Briefly, all PDCs were thawed and cultured in Matrigel-coated flasks prepared with a working solution of 1X Ham's F-12 nutrient mix, without supplementation (Invitrogen, Waltham, MA, cat. 11765054), 100 U/mL penicillin-streptomycin (Invitrogen, cat. 15140122), and 2.5% Matrigel (Corning Inc., Corning, NY, cat. 354248) for the first three passages. All PDCs were cultured in complete DMEM/F-12 media containing advanced DMEM/F-12 (Invitrogen, cat. 12634028), 4.9% defined fetal bovine serum, heat inactivated (HyClone Laboratories Inc., Logan, UT, cat. SH30070.03HI), 389 ng/mL hydrocortisone (Sigma-Aldrich, cat. H4001), 9.7 ng/mL human EGF recombinant protein (Invitrogen, cat. PHG0313), 23.4 microg/mL adenine (Sigma-Aldrich, cat. A2786), 97.3 U/mL penicillin-streptomycin (Invitrogen, cat. 15140122), 1.9 mM L-glutamine (Invitrogen, cat. 25030081), and 9.7 microM Y-27632 dihydrochloride (Tocris Bioscience, Bristol, United Kingdom, cat. 1254). The PDCs were cultured in complete DMEM/F12 media without 10 microM Y-27632 dihydrochloride for at least two passages prior to the screen. The established cell lines NCI-H1341 and […] were cultured in DMEM/F-12, HEPES (Invitrogen, cat. 11330032), 5% defined fetal bovine serum (HyClone Laboratories Inc., cat. SH30070.03), ITS premix universal culture supplement [insulin (5 microg/mL), transferrin (5 microg/mL), and selenious acid (5 ng/mL)] […]
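Further: spheroids exposed to agents for 7 days before readout.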
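Wherever viability, T/C is given: 100% = DMSO vehicle control wells.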

CC(C)CC(NC(=O)C(Cc1ccccc1)NC(=O)c1cnccn1)B(O)O (stereo not given) + CC(CO)NC(=O)c1cc(-c2ccc(Cl)cc2)nn(-c2cnn(C)c2)c1=O
IC50 (second compound 0.1 µM): 0.0213 µM
IC50 (second compound 0.316 µM): 0.0215 µM
IC50 (second compound 1 µM): 0.0198 µM
IC50 (second compound 3.16 µM): 0.0182 µM
IC50 (second compound 10 µM): 0.0166 µM
viability, T/C (second compound 0.1 µM, first compound 0.000949 µM): 106%
viability, T/C (second compound 0.1 µM, first compound 0.003 µM): 102%
viability, T/C (second compound 0.1 µM, first compound 0.00949 µM): 104%
viability, T/C (second compound 0.1 µM, first compound 0.03 µM): 27.3%
viability, T/C (second compound 0.1 µM, first compound 0.0949 µM): 10.7%
viability, T/C (second compound 0.1 µM, first compound 0.3 µM): 4.68%
viability, T/C (second compound 0.316 µM, first compound 0.000949 µM): 90.2%
viability, T/C (second compound 0.316 µM, first compound 0.003 µM): 102%
viability, T/C (second compound 0.316 µM, first compound 0.00949 µM): 102%
viability, T/C (second compound 0.316 µM, first compound 0.03 µM): 30.3%
viability, T/C (second compound 0.316 µM, first compound 0.0949 µM): 11.1%
viability, T/C (second compound 0.316 µM, first compound 0.3 µM): 4.81%
viability, T/C (second compound 1 µM, first compound 0.000949 µM): 90.5%
viability, T/C (second compound 1 µM, first compound 0.003 µM): 104%
viability, T/C (second compound 1 µM, first compound 0.00949 µM): 94.9%
viability, T/C (second compound 1 µM, first compound 0.03 µM): 24.6%
viability, T/C (second compound 1 µM, first compound 0.0949 µM): 9.8%
viability, T/C (second compound 1 µM, first compound 0.3 µM): 4.5%
viability, T/C (second compound 3.16 µM, first compound 0.000949 µM): 94.3%
viability, T/C (second compound 3.16 µM, first compound 0.003 µM): 96.7%
viability, T/C (second compound 3.16 µM, first compound 0.00949 µM): 87.1%
viability, T/C (second compound 3.16 µM, first compound 0.03 µM): 21.2%
viability, T/C (second compound 3.16 µM, first compound 0.0949 µM): 10.7%
viability, T/C (second compound 3.16 µM, first compound 0.3 µM): 3.25%
viability, T/C (second compound 10 µM, first compound 0.000949 µM): 98%
viability, T/C (second compound 10 µM, first compound 0.003 µM): 111%
viability, T/C (second compound 10 µM, first compound 0.00949 µM): 85.4%
viability, T/C (second compound 10 µM, first compound 0.03 µM): 12.6%
viability, T/C (second compound 10 µM, first compound 0.0949 µM): 10.3%
viability, T/C (second compound 10 µM, first compound 0.3 µM): 4.28%

Nc1ccccc1NC(=O)c1ccc(CNC(=O)OCc2cccnc2)cc1 + CC(CO)NC(=O)c1cc(-c2ccc(Cl)cc2)nn(-c2cnn(C)c2)c1=O
IC50 (second compound 0.1 µM): 4.81 µM
IC50 (second compound 0.316 µM): 3.74 µM
IC50 (second compound 1 µM): 4.31 µM
IC50 (second compound 3.16 µM): 1.74 µM
IC50 (second compound 10 µM): 1.08 µM
viability, T/C (second compound 0.1 µM, first compound 0.0316 µM): 92.7%
viability, T/C (second compound 0.1 µM, first compound 0.1 µM): 92.3%
viability, T/C (second compound 0.1 µM, first compound 0.316 µM): 92.9%
viability, T/C (second compound 0.1 µM, first compound 1 µM): 72.5%
viability, T/C (second compound 0.1 µM, first compound 3.16 µM): 61.8%
viability, T/C (second compound 0.1 µM, first compound 10 µM): 32.9%
viability, T/C (second compound 0.316 µM, first compound 0.0316 µM): 89.1%
viability, T/C (second compound 0.316 µM, first compound 0.1 µM): 80.9%
viability, T/C (second compound 0.316 µM, first compound 0.316 µM): 87.9%
viability, T/C (second compound 0.316 µM, first compound 1 µM): 62.6%
viability, T/C (second compound 0.316 µM, first compound 3.16 µM): 55.4%
viability, T/C (second compound 0.316 µM, first compound 10 µM): 34.6%
viability, T/C (second compound 1 µM, first compound 0.0316 µM): 92.5%
viability, T/C (second compound 1 µM, first compound 0.1 µM): 91%
viability, T/C (second compound 1 µM, first compound 0.316 µM): 80.5%
viability, T/C (second compound 1 µM, first compound 1 µM): 78.4%
viability, T/C (second compound 1 µM, first compound 3.16 µM): 56.4%
viability, T/C (second compound 1 µM, first compound 10 µM): 29.7%
viability, T/C (second compound 3.16 µM, first compound 0.0316 µM): 88.4%
viability, T/C (second compound 3.16 µM, first compound 0.1 µM): 88.5%
viability, T/C (second compound 3.16 µM, first compound 0.316 µM): 78%
viability, T/C (second compound 3.16 µM, first compound 1 µM): 59.7%
viability, T/C (second compound 3.16 µM, first compound 3.16 µM): 39.7%
viability, T/C (second compound 3.16 µM, first compound 10 µM): 27.7%
viability, T/C (second compound 10 µM, first compound 0.0316 µM): 79.1%
viability, T/C (second compound 10 µM, first compound 0.1 µM): 87.3%
viability, T/C (second compound 10 µM, first compound 0.316 µM): 69.2%
viability, T/C (second compound 10 µM, first compound 1 µM): 52.4%
viability, T/C (second compound 10 µM, first compound 3.16 µM): 31.3%
viability, T/C (second compound 10 µM, first compound 10 µM): 23.4%
